For one experiment, the target named is recombinant human DPPI (Homo sapiens (Human), UniProt P53634). The experiment can be described thus: Inhibition of Human DPPI (Cathepsin C). It is filed as biochemical. The conditions noted are these: substrate Gly-Arg-AMC, 30 min room temperature. The source says:
Inhibition of Human DPPI (Cathepsin C)
Materials: Microtiterplates (Optiplate-384 F) were purchased from PerkinElmer (Prod. No. 6007270). The substrate Gly-Arg-AMC was from Biotrend (Prod.-No. 808756 Custom peptide). Bovine serum albumin (BSA; Prod. No. A3059) and Dithiothreitol (DTT; Prod. No D0632) were from Sigma. TagZyme buffer was from Riedel-de-Haen (Prod.-No. 04269), NaCl was from Merck (Prod.-No. 1.06404.1000) and morpholinoethane sulfonic acid (MES), was from Serva (Prod.-No. 29834). The DPP1 inhibitor Gly-Phe-DMK was purchased from MP Biomedicals (Prod.-No. 03DK00625). The recombinant human DPPI was purchased from Prozymex. All other materials were of highest grade commercially available.
The following buffers were used: MES buffer: 25 mM MES, 50 mM NaCl, 5 mM DTT, adjusted to pH 6.0, containing 0.1% BSA; TAGZyme Buffer: 20 mM NaH2PO4, 150 mM NaCl adjusted to pH 6.0 with HCl
The recombinant human DPPI was diluted in TAGZyme buffer to 1 U/ml (38.1 μg/ml, respectively), and then activated by mixing in a 1:2 ratio with a Cysteamine aqueous solution (2 mM) and incubating for 5 min at room temperature.
Five uL test compound (final concentration 0.1 nM to 100 μM) in aqua bidest (containing 4% DMSO, final DMSO concentration 1%) were mixed with 10 μL of DPPI in MES buffer (final concentration 0.0125 ng/μL) and incubated for 10 min. Then, 5 μL of substrate in MES buffer (final concentration 50 μM) were added. The microtiter plates were then incubated at room temperature for 30 min. Then, the reaction was stopped by adding 10 μL of Gly-Phe-DMK in MES-buffer (final concentration 1 μM). The fluorescence in the wells was determined using a Molecular Devices SpectraMax M5 Fluorescence Reader (Ex 360 nm, Em 460 nm) or an Envision Fluorescence Reader (Ex 355 nm, Em 460 nm).
Each assay microtiter plate contained wells with vehicle controls (1% DMSO in bidest+0.075% BSA) as reference for non-inhibited enzyme activity (100% Ctl; high values) and wells with inhibitor (Gly-Phe-DMK, in bidest+1% DMSO+0.075% BSA, final concentration 1 μM) as controls for background fluorescence (0% Ctl; low values).
The analysis of the data was performed by calculating the percentage of fluorescence in the presence of test compound in comparison to the fluorescence of the vehicle control after subtracting the background fluorescence using the following formula: (RFU(sample)−RFU(background))*100/(RFU(control)−RFU(background))
Data from these calculations were used to generate IC50 values for inhibition of DPPI, respectively.

Experiment [1] deals with recombinant human Cathepsin K (Homo sapiens (Human), UniProt P43235). The experiment can be described thus: Inhibition of Human Cathepsin K. The class given is biochemical. The conditions noted are these: substrate Z-Gly-Pro-Arg-AMC, 60 min room temperature. The source says:
Inhibition of Human Cathepsin K Materials: Microtiterplates (Optiplate-384 F were purchased from PerkinElmer (Prod. No. 6007270). The substrate Z-Gly-Pro-Arg-AMC was from Biomol (Prod.-No. P-142). L-Cysteine (Prod. No. 168149) was from Sigma. Sodium actetate was from Merck (Prod.-No. 6268.0250), EDTA was from Fluka (Prod.-No. 03680). The inhibitor E-64 was purchased from Sigma (Prod.-No. E3132). The recombinant human Cathepsin K proenzyme was purchased from Biomol (Prod. No. SE-367). All other materials were of highest grade commercially available.
The following buffers were used: Activation buffer: 32.5 mM sodium acetate, adjusted to pH 3.5 with HCl; Assay buffer: 150 mM sodium acetate, 4 mM EDTA, 20 mM L-Cysteine, adjusted to pH 5.5 with HCl,
To activate the proenzyme, 5 μl procathepsin K were mixed with 1 ul activation buffer, and incubated at room temperature for 30 min.
5 μL test compound (final concentration 0.1 nM to 100 μM) in aqua bidest (containing 4% DMSO, final DMSO concentration 1%) were mixed with 10 uL of Cathepsin K in assay buffer (final concentration 2 ng/μL) and incubated for 10 min. Then 5 μL of substrate in assay buffer (final concentration 12.5 μM) were added. The plates were then incubated at room temperature for 60 min. Then, the reaction was stopped by adding 10 μL of E64 in assay buffer (final concentration 1 μM). The fluorescence in the wells was determined using a Molecular Devices SpectraMax M5 Fluorescence Reader (Ex 360 nm, Em 460 nm).
Each assay microtiter plate contains wells with vehicle controls (1% DMSO in bidest) as reference for non-inhibited enzyme activity (100% Ctl; high values) and wells with inhibitor (E64 in bidest+1% DMSO, final concentration 1 μM) as controls for background fluorescence (0% Ctl; low values). The analysis of the data was performed by calculating the percentage of fluorescence in the presence of test compound in comparison to the fluorescence of the vehicle control after subtracting the background fluorescence: (RFU(sample)−RFU(background))*100/(RFU(control)−RFU(background))
Data from these calculations were used to generate IC50 values for inhibition of Cathepsin K, respectively.

Sequence of recombinant human DPPI (P53634 231-394): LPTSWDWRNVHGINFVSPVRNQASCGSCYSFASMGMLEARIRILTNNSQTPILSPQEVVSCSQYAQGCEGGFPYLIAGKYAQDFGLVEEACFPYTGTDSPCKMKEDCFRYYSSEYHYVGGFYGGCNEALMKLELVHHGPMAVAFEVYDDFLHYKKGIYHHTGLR
Sequence of recombinant human DPPI (P53634 395-463): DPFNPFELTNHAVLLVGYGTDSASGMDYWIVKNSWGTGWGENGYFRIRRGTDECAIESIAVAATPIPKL
Sequence of recombinant human DPPI (P53634 25-134): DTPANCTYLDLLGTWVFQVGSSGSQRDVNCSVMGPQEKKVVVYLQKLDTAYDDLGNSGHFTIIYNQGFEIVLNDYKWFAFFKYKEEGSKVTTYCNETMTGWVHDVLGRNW
Sequence of recombinant human Cathepsin K (P43235 115-329): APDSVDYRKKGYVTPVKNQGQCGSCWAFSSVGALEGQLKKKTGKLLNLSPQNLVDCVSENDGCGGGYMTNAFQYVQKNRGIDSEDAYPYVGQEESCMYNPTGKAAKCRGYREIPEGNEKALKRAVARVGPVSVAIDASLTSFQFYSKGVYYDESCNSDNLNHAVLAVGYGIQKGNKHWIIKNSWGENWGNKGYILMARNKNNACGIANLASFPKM

A word on the IC50: it is the concentration that inhibits the measured activity by half. Regarding `CN1C(=O)Cc2ccc(-c3ccc(C[C@@H](C#N)NC(=O)[C@@]45CCO[C@@H](CN4)C5)cc3)cc21` [Example 5], the results for the concentration for half-maximal inhibition (IC50) (on recombinant human DPPI; in experiment [1]) were 50.3 nM and more than 30000 nM, respectively.

The values above are taken from US8889708B2 (Boehringer Ingelheim International GmbH, priority 2013, dated 2014).
